Source: US7241803B2, “Compounds for inhibition of HIV infection by blocking HIV entry” (New York Blood Center, priority 2002, dated 2007)

Legend:
[1] = system: HIV-1 SF2 (clade B, X4); test: infection by laboratory-adapted HIV-1 strain, p24 production; format: cell-based
Excerpt: Assessment of anti-HIV-1 infectivity. […] Reactions were terminated by addition of 1N H2SO4.

[2] = system: HIV-1 AZT-R (clade B, X4); conditions: Laboratory-adapted AZT-R (clade B, X4)
Protocol: Assessment of anti-HIV-1 infectivity. The inhibitory activity of compounds on infection by laboratory-adapted HIV-1 strains was determined as previously described (18). In brief, 1×10^4 MT-2 cells were infected with HIV-1 at 100 TCID50 (50% tissue culture infective dose) in 200 μl of RPMI 1640 medium containing 10% FBS in the presence or absence of compounds at graded concentrations overnight. For the time-of-addition assay, compounds were added at various time post-infection. Then the culture supernatants were removed and fresh media were added. On the fourth day post-infection, 100 μl of culture supernatants were collected from each well, mixed with equal volumes of 5% Triton X-100 and assayed for p24 antigen, which was quantitated by ELISA (51). Briefly, the wells of polystyrene plates (Immulon 1B, Dynex Technology, Chantilly, Va.) were coated with HIV immunoglobulin (HIVIG), which was prepared from plasma of HIV-seropositive donors with high neutralizing titers against HIV-1IIIB as previously described (44) in 0.085 M carbonate-bicarbonate buffer (pH 9.6) at 4° C. overnight, followed by washes with PBS-T buffer (0.01M PBS containing 0.05% Tween-20) and blocking with PBS containing 1% dry fat-free milk (Bio-Rad Inc., Hercules, Calif.). Virus lysates were added to the wells and incubated at 37° C. for 1 h. […] Absorbance at 450 nm was recorded in an ELISA reader (Ultra 384, Tecan). […]

[3] = system: HIV-1 92US657 (clade B, R5); test: infection of PBMCs by primary HIV-1 isolate, p24 production; format: cell-based; conditions: Primary 92US657 (clade B, R5)
Excerpt: (§1) Culture media were changed every 3 days.

[4] = system: HIV-1 93IN101 (clade C, R5); test: as above; format: cell-based; conditions: Primary 93IN101 (clade C, R5)
Excerpt: as §1

[5] = system: HIV-1 94UG103 (clade A, X4R5); test: as above; format: cell-based; conditions: Primary 94UG103 (clade A, X4R5)
Excerpt: as §1

[6] = system: HIV-1 BCF02 (Group O, R5); test: as above; format: cell-based
Excerpt: as §1

[7] = system: 5.25M7 & PBMCs infected by 93IN101 (clade C, R5)
Protocol: (§2) Inhibition of fusion between PBMCs infected by primary HIV-1 strains (X4 and R5 viruses) with CEMx174 5.25 M7 cells, which express CD4 and both coreceptors, CXCR4 and CCR5, was determined by a luciferase assay. Briefly, 50 μl of compound at graded concentration in triplicate was incubated with equal volume of PHA-stimulated PBMCs (1×10^5/ml) infected by corresponding primary HIV-1 strains, respectively, for 7 days as described above. After incubation at 37° C. for 30 min, 100 μl of CEMx174 5.25 M7 cells (2×10^5) were added and incubated at 37° C. for three days. The cells were collected, washed, and lysed with the lysing reagent included in the luciferase kit (Promega, Corp., Madison, Wis.). Aliquots of cell lysates were transferred to 96-well flat-bottom luminometer plates (Costar, Corning Inc., Corning, N.Y.), followed by addition of luciferase substrate (Promega). The luciferase activity was measured in the Ultra 384 luminometer (Tecan).

[8] = system: 5.25M7 & PBMCs infected by 93TH051 (clade E, X4R5)
Protocol: as §2

[9] = system: 5.25M7 & PBMCs infected by 93UG065 (clade D, X4R5)
Protocol: as §2

[10] = system: 5.25M7 & PBMCs infected by BCF02 (Group O, R5)
Protocol: as §2

[11] = system: 5.25M7 & PBMCs/SF162 (clade B, R5)
Protocol: as §2

[12] = molecular target: gp41 six-helix bundle formed by N36 and C34 (Human immunodeficiency virus type 1 group M subtype B, UniProt P04578); conditions: for inhibitory activity on gp41 six-helix bundle formation (sandwich ELISA): graded concentrations, up to 80 μg/ml, compound preincubated with N36; for inhibition of six-helix bundle formation between N36 and C34 (screening ELISA): single dose 25 μg/ml
Protocol: ELISA for screening for compounds that inhibit the gp41 six-helix bundle formation. A sandwich ELISA as previously described (23) was used to screen for compounds that inhibit the gp41 six-helix bundle formation. Briefly, peptide N36 (2 μM) was pre-incubated with a test compound at the indicated concentrations at 37° C. for 30 min, followed by addition of C34 (2 μM). In the control experiments, N36 was pre-incubated with C34 at 37° C. for 30 min, followed by addition of the test compound. After incubation at 37° C. for 30 min, the mixture was added to wells of a 96-well polystyrene plate (Costar, Corning Inc., Corning, N.Y.) which were precoated with IgG (2 μg/ml) purified from rabbit antisera directed against the N36/C34 mixture. […] Absorbance at 450 nm was measured using an ELISA reader (Ultra 384, Tecan, Research Triangle Park, N.C.). The percent inhibition by the compounds was calculated as previously described (18) and the concentration for 50% inhibition (IC50) was calculated using the software designated Calcusyn (7), kindly provided by Dr. T. C. Chou (Sloan-Kettering Cancer Center, New York, N.Y.).

[13] = molecular target: N36/C34 mixture (Human immunodeficiency virus type 1 group M subtype B, UniProt P04578); conditions: 100 μg/ml
Protocol: Circular dichroism (CD) spectroscopy. A test compound at graded concentrations was incubated with N36 in phosphate buffer (pH 7.2) at 37° C. for 30 min before addition of C34 in the same buffer at equimolar concentration. After incubation at 37° C. for 30 min, the mixture was cooled down and CD spectra of the mixture were measured on the J-715 CD spectrometer equipped with a thermoelectric temperature controller (Jasco, Japan). The instrument was calibrated using a two point calibration method with (+)-10-camphorsulfonic acid. The wavelength dependence of molar ellipticity (θ) was monitored at 0° C. by 5 scans in 1 nm increments with a sampling time of 10 seconds as previously described (12, 51). The CD signal at 222 nm was measured as a function of temperature. Thermal melts were performed in 2° C. steps, with 2 min of equilibration at each temperature and an acquisition time of 0.5 min. The midpoint of the thermal unfolding transition (Tm) was estimated from the maximum of the first derivative of the CD signal at 222 nm (1).

gp41 six-helix bundle formed by N36 and C34, sequence (P04578 546-581): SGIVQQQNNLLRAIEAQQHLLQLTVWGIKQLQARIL
N36/C34 mixture, sequence (P04578 546-581): as above

SMILES | IC50 (μg/ml) for inhibition of p24 production [1] [µg/mL] | IC50 (μg/ml) for inhibition of p24 production [2] [µg/mL] | IC50 (μg/ml) for inhibition of p24 production [3] [µg/mL] | IC50 (μg/ml) for inhibition of p24 production [4] [µg/mL] | IC50 (μg/ml) for inhibition of p24 production [5] [µg/mL] | IC50 (μg/ml) for inhibition of p24 production [6] [µg/mL] | IC50 (μg/ml) for inhibition of cell-cell fusion [7] [µg/mL] | IC50 (μg/ml) for inhibition of cell-cell fusion [8] [µg/mL] | IC50 (μg/ml) for inhibition of cell-cell fusion [9] [µg/mL] | IC50 (μg/ml) for inhibition of cell-cell fusion [10] [µg/mL] | IC50 (μg/ml) for inhibition of cell-cell fusion [11] [µg/mL] | inhibitory activity on gp41 six-helix bundle formation (sandwich ELISA) [12] | inhibition of six-helix bundle formation between N36 and C34 (screening ELISA) [12] | α-helicity of the N36/C34 mixture [13]
Cc1ccc(C)n1-c1ccc(C(=O)O)c(O)c1 [NB-2] | 0.44 ± 0.03 | 1.41 ± 0.03 | 10.41 ± 1.88 | 1.05 ± 0.23 | 5.92 ± 0.06 | 0.21 ± 0.12 | 3.27 ± 0.18 | 1.76 ± 0.07 | 6.07 ± 0.07 | 0.93 ± 0.57 | 4.86 ± 0.34 | significantly inhibited | significantly inhibited | significantly disrupted
O=C(O)c1cc(-n2cccc2)ccc1Cl [NB-64] | 1.34 ± 0.06 | 6.25 ± 0.25 | 6.60 ± 1.80 | 4.38 ± 0.19 | 7.94 ± 0.96 | 1.31 ± 0.90 | 18.26 ± 0.01 | 12.72 ± 0.32 | 20.77 ± 1.94 | 10.30 ± 5.90 | 20.86 ± 0.20 | significantly inhibited | significantly inhibited | significantly disrupted
